Test results from patent US20230339886A1 (University of Florida Research Foundation, Incorporated, priority 2020, published 2023).

The molecules below were run against T1, REV-ERBα LBD (human; residues 281-614 Δ324-422) (Homo sapiens, UniProt P20393, DEL324-422) (assay: TR-FRET corepressor interaction assay (REV-ERBα LBD, FITC-SMRT peptide)). Conditions: FITC-SMRT peptide, read-out: REVERBα agonism (EC50 class, FRET assay).
T1 construct: 6×Histag-REV-ERBα LBD (human; residues 281-614 Δ324-422); made in house; host or cells: Escherichia coli
T1 sequence (P20393 with tags, fused parts or gaps DEL324-422): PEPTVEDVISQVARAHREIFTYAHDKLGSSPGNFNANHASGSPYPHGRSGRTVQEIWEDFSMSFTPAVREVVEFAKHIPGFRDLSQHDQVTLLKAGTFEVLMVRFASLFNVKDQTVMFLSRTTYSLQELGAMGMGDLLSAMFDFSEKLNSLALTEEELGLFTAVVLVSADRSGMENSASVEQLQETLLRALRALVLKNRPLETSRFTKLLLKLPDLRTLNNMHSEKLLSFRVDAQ
T1 sequence (Q9Y618 2335-2356 partner limits assumed): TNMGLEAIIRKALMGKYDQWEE
Type: biochemical
Summary of the method: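 Compound serial dilutions (in DMSO, triplicate) incubated 2 h at 4 °C; Tb donor excited at 340 nm, emission read at 495 nm and FITC acceptor at 520 nm. TR-FRET ratio (520/495 nm) plotted against ligand concentration and fitted to a sigmoidal dose-response curve.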

Row | EC50 [nM] | Compound
1 | < 500 | CC(C)(C)Cn1cc([C@@H](CF)NS(=O)(=O)C2CCC2)c2ccc(-c3ccccc3C(F)(F)F)cc21 [Example 516, (S)—N-(2-fluoro-1-(1-neopentyl-6-(2-(trifluoromethyl)phenyl)-1H-indol-3-yl)ethyl)cyclobutanesulfonamide]
2 | < 500 | [2H]C([2H])(n1cc([C@H](NS(=O)(=O)C2CCC2)C(F)(F)F)c2ccc(-c3ccccc3C(F)(F)F)cc21)C(C)(C)C [Example 517, (S)—N-(1-(1-(2,2-dimethylpropyl-1,1-d2)-6-(2-(trifluoromethyl)phenyl)-1H-indol-3-yl)-2,2,2-trifluoroethyl)cyclobutanesulfonamide]
3 | < 500 | CC(C)(C)Cn1cc([C@H](NS(=O)(=O)C2CCC2)C(F)F)c2ccc(-c3ccccc3C(F)(F)F)nc21 [Example 518, (S)—N-(2,2-difluoro-1-(1-neopentyl-6-(2-(trifluoromethyl)phenyl)-1H-pyrrolo[2,3-b]pyridin-3-yl)ethyl)cyclobutanesulfonamide]
4 | < 500 | CC(C)(C)Cn1cc([C@H](NS(=O)(=O)C2CCC2)C(F)(F)F)c2ccc(C3CCOCC3)cc21 [Example 519, (S)—N-(2,2,2-trifluoro-1-(1-neopentyl-6-(tetrahydro-2H-pyran-4-yl)-1H-indol-3-yl)ethyl)cyclobutanesulfonamide]
5 | < 500 | N#Cc1cccc(F)c1-c1ccc2c([C@H](NS(=O)(=O)C3CCC3)C(F)(F)F)cn(C3CCC3)c2c1 [Example 520, (S)—N-(1-(6-(2-cyano-6-fluorophenyl)-1-cyclobutyl-1H-indol-3-yl)-2,2,2-trifluoroethyl)cyclobutanesulfonamide]
6 | < 500 | CC(C)(C)Cn1cc([C@H](NS(=O)(=O)C2CCC2)C(F)(F)F)c2ccc(C3=CCCC3)cc21 [Example 521, (S)—N-(1-(6-cyclopentenyl-1-neopentyl-1H-indol-3-yl)-2,2,2-trifluoroethyl)cyclobutanesulfonamide]
7 | 500 to 3000 | CC(C)(C)Cn1cc([C@H](NS(=O)(=O)C2CC(O)C2)C(F)(F)F)c2ccc(-c3ccccc3C(F)(F)F)cc21 (stereo partly drawn) [Example 522, (S)-3-hydroxy-N-(2,2,2-trifluoro-1-(1-neopentyl-6-(2-(trifluoromethyl)phenyl)-1H-indol-3-yl)ethyl)cyclobutane-1-sulfonamide]
8 | < 500 | O=S(=O)(N[C@@H](c1cn(CC2(C(F)(F)F)CC2)c2cc(-c3ccccc3C(F)(F)F)ccc12)C(F)(F)F)C1CCC1 [Example 523, (S)—N-(2,2,2-trifluoro-1-(1-((1-(trifluoromethyl)cyclopropyl)methyl)-6-(2-(trifluoromethyl)phenyl)-1H-indol-3-yl)ethyl)cyclobutanesulfonamide]
9 | < 500 | CC(C)(C)Cn1cc([C@H](NS(=O)(=O)C2CC2)C(F)(F)F)c2cc(F)c(-c3ccccc3C(F)(F)F)nc21 [Example 524, (S)—N-(2,2,2-trifluoro-1-(5-fluoro-1-neopentyl-6-(2-(trifluoromethyl)phenyl)-1H-pyrrolo[2,3-b]pyridin-3-yl)ethyl)cyclopropanesulfonamide]
10 | < 500 | CC(C)(C)Cn1cc([C@H](NS(=O)(=O)C2CCC2)C(F)(F)F)c2cc(F)c(-c3ccccc3C(F)(F)F)nc21 [Example 525, (S)—N-(2,2,2-trifluoro-1-(5-fluoro-1-neopentyl-6-(2-(trifluoromethyl)phenyl)-1H-pyrrolo[2,3-b]pyridin-3-yl)ethyl)cyclobutanesulfonamide]
11 | < 500 | N#Cc1cccc(F)c1-c1ccc2c([C@H](NS(=O)(=O)C3CCC3)C(F)(F)F)cn(C3CCOCC3)c2c1 [Example 526, (S)—N-(1-(6-(2-cyano-6-fluorophenyl)-1-(tetrahydro-2H-pyran-4-yl)-1H-indol-3-yl)-2,2,2-trifluoroethyl)cyclobutanesulfonamide]
12 | < 500 | CC(C)(C)Cn1cc([C@H](NS(=O)(=O)C2CCC2)C(F)F)c2ccc(-c3c(F)cccc3C(F)(F)F)cc21 [Example 527, (S)—N-(2,2-difluoro-1-(6-(2-fluoro-6-(trifluoromethyl)phenyl)-1-neopentyl-1H-indol-3-yl)ethyl)cyclobutanesulfonamide]
13 | < 500 | CC(C)(C)Cn1cc([C@H](NS(=O)(=O)C2CCC2)C(F)(F)F)c2cc(F)c(-c3cccnc3C(F)(F)F)cc21 [Example 528, (S)—N-(2,2,2-trifluoro-1-(5-fluoro-1-neopentyl-6-(2-(trifluoromethyl)pyridin-3-yl)-1H-indol-3-yl)ethyl)cyclobutanesulfonamide]
14 | < 500 | CC(C)(C)Cn1cc([C@H](NS(=O)(=O)C2CCC2)C(F)(F)F)c2cc(F)c(-c3cnccc3C(F)(F)F)cc21 [Example 530, (S)—N-(2,2,2-trifluoro-1-(5-fluoro-1-neopentyl-6-(4-(trifluoromethyl)pyridin-3-yl)-1H-indol-3-yl)ethyl)cyclobutanesulfonamide]
15 | < 500 | CC(C)(C)Cn1cc([C@H](NS(=O)(=O)C2CCC2)C(F)F)c2cc(F)c(-c3ccccc3C(F)(F)F)nc21 [Example 533, (S)—N-(2,2-difluoro-1-(5-fluoro-1-neopentyl-6-(2-(trifluoromethyl)phenyl)-1H-pyrrolo[2,3-b]pyridin-3-yl)ethyl)cyclobutanesulfonamide]
16 | < 500 | CC(C)(C)Cn1cc([C@H](NS(=O)(=O)C2CCC2)C(F)(F)F)c2ccc(-c3ccccc3C#N)nc21 [Example 534, (S)—N-(1-(6-(2-cyanophenyl)-1-neopentyl-1H-pyrrolo[2,3-b]pyridin-3-yl)-2,2,2-trifluoroethyl)cyclobutanesulfonamide]
17 | < 500 | CC(C)(C)Cn1cc([C@H](NS(=O)(=O)C2CCC2)C(F)F)c2ccc(-c3c(C#N)cccc3C(F)(F)F)cc21 [Example 535, (S)—N-(1-(6-(2-cyano-6-(trifluoromethyl)phenyl)-1-neopentyl-1H-indol-3-yl)-2,2-difluoroethyl)cyclobutanesulfonamide]
18 | < 500 | CC(C)(C)Cn1cc([C@H](NS(=O)(=O)C2CC2)C(F)(F)F)c2ccc(-c3ccccc3C(F)(F)F)c(F)c21 [Example 536, (S)—N-(2,2,2-trifluoro-1-(7-fluoro-1-neopentyl-6-(2-(trifluoromethyl)phenyl)-1H-indol-3-yl)ethyl)cyclopropanesulfonamide]
19 | > 3000 | CC(C)(C)Cn1cc([C@H](NS(=O)(=O)C2CCC2(F)F)C(F)(F)F)c2ccc(-c3ccccc3C(F)(F)F)cc21 (stereo partly drawn) [Example 537, 2,2-difluoro-N—((S)-2,2,2-trifluoro-1-(1-neopentyl-6-(2-(trifluoromethyl)phenyl)-1H-indol-3-yl)ethyl)cyclobutane-1-sulfonamide]
20 | < 500 | CC(C)(C)Cn1cc([C@H](NS(=O)(=O)C2CCC2)C(F)(F)F)c2cc(F)c(-c3ncccc3C#N)cc21 [Example 538, (S)—N-(1-(6-(3-cyanopyridin-2-yl)-5-fluoro-1-neopentyl-1H-indol-3-yl)-2,2,2-trifluoroethyl)cyclobutanesulfonamide]
21 | < 500 | CC(C)(C)Cn1cc([C@H](NS(=O)(=O)C2CC2)C(F)F)c2ccc(-c3ccccc3C(F)(F)F)cc21 [Example 541, (S)—N-(2,2-difluoro-1-(1-neopentyl-6-(2-(trifluoromethyl)phenyl)-1H-indol-3-yl)ethyl)cyclopropanesulfonamide]
22 | < 500 | CC(C)(C)Cn1cc([C@H](NS(=O)(=O)C2CC2)C(F)F)c2cc(F)c(-c3ccccc3C(F)(F)F)cc21 [Example 542, (S)—N-(2,2-difluoro-1-(5-fluoro-1-neopentyl-6-(2-(trifluoromethyl)phenyl)-1H-indol-3-yl)ethyl)cyclopropanesulfonamide]
23 | < 500 | CC(C)(C)Cn1cc([C@H](NS(=O)(=O)C2CC2)C(F)F)c2ccc(-c3c(F)cccc3C(F)(F)F)cc21 [Example 543, (S)—N-(2,2-difluoro-1-(6-(2-fluoro-6-(trifluoromethyl)phenyl)-1-neopentyl-1H-indol-3-yl)ethyl)cyclopropanesulfonamide]
24 | < 500 | CC(C)(C)Cn1cc([C@H](NS(=O)(=O)C2CCC2)C(F)(F)F)c2ccc(-c3ccccc3C(F)(F)F)c(F)c21 [Example 544, (S)—N-(2,2,2-trifluoro-1-(7-fluoro-1-neopentyl-6-(2-(trifluoromethyl)phenyl)-1H-indol-3-yl)ethyl)cyclobutanesulfonamide]
25 | < 500 | CC(C)(C)Cn1cc([C@H](NS(=O)(=O)C2CC2)C(F)F)c2ccc(-c3c(C#N)cccc3C(F)(F)F)cc21 [Example 545, (S)—N-(1-(6-(2-cyano-6-(trifluoromethyl)phenyl)-1-neopentyl-1H-indol-3-yl)-2,2-difluoroethyl)cyclopropanesulfonamide]
26 | < 500 | CC(C)(C)Cn1cc([C@H](NS(=O)(=O)C2CC2)C(F)F)c2cc(F)c(-c3ccccc3C(F)(F)F)nc21 [Example 546, (S)—N-(2,2-difluoro-1-(5-fluoro-1-neopentyl-6-(2-(trifluoromethyl)phenyl)-1H-pyrrolo[2,3-b]pyridin-3-yl)ethyl)cyclopropanesulfonamide]
27 | < 500 | CC(C)(C)Cn1cc([C@H](NS(=O)(=O)C2CC2)C(F)F)c2ccc(-c3ccccc3C(F)(F)F)nc21 [Example 547, (S)—N-(2,2-difluoro-1-(1-neopentyl-6-(2-(trifluoromethyl)phenyl)-1H-pyrrolo[2,3-b]pyridin-3-yl)ethyl)cyclopropanesulfonamide]
28 | < 500 | [2H][C@](NS(=O)(=O)C1CC1)(c1cn(CC(C)(C)C)c2cc(-c3ccccc3C(F)(F)F)ccc12)C(F)F [Example 550, (S)—N-(2,2-difluoro-1-(1-neopentyl-6-(2-(trifluoromethyl)phenyl)-1H-indol-3-yl)ethyl-1-d)cyclopropanesulfonamide]
29 | < 500 | CC(C)(C)Cn1cc([C@H](NS(=O)(=O)C2CC2)C(F)F)c2ccc(-c3ccc(F)cc3C(F)(F)F)cc21 [Example 551, (S)—N-(2,2-difluoro-1-(6-(4-fluoro-2-(trifluoromethyl)phenyl)-1-neopentyl-1H-indol-3-yl)ethyl)cyclopropanesulfonamide]
